Results on two molecules are retold here after PubChem BioAssay (NCI).

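These data come from cells grown in 96-well plates and exposed to compound for 48 hours at five concentrations. GI50 marks 50% less growth. The concentration for full growth arrest is given as TGI.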

Among the test systems are SR leukemia; HOP-62 NSCLC; M14 melanoma; KM12 colon; OVCAR-8 ovarian; SNB-75 CNS; MALME-3M melanoma; A549 NSCLC; OVCAR-3 ovarian; TK-10 renal.
Assay in all cases: NCI anticancer screen, dose series, 48 h

In the case of `CCC[CH2][Sn]([CH2]CCC)([O]C(=O)c1ccc(OC)c(OC)c1OC)[O][Sn]([CH2]CCC)([CH2]CCC)[O]C(=O)c1ccc(OC)c(OC)c1OC`, the GI50 is 315 nM in the assay on SR leukemia; 1610 nM in the assay on HOP-62 NSCLC; 267 nM in the assay on M14 melanoma; 859 nM in the assay with KM12 colon; 299 nM in the assay on OVCAR-8 ovarian; 177 nM in the assay on SNB-75 CNS. Moreover, the GI50 is 168 nM in the assay with MALME-3M melanoma, 2270 nM with A549 NSCLC, 406 nM in the assay on OVCAR-3 ovarian and 306 nM in the assay on TK-10 renal. Besides, the TGI with SR leukemia is above 100000 nM; in the assay with HOP-62 NSCLC it was 2980 nM; in the assay with M14 melanoma it was 583 nM; in the assay with KM12 colon, 2310 nM; in the assay on OVCAR-8 ovarian, 979 nM; in the assay on SNB-75 CNS it was 744 nM. The TGI with MALME-3M melanoma is 757 nM; with A549 NSCLC, 5420 nM; in the assay on OVCAR-3 ovarian it was 1180 nM; in the assay on TK-10 renal, 716 nM.
Turning to `CSc1nc(SC)c2c(C#N)[nH]nc2n1`, the TGI with SR leukemia, in the assay on HOP-62 NSCLC, in the assay with M14 melanoma, in the assay with KM12 colon, in the assay with OVCAR-8 ovarian and with SNB-75 CNS was above 100000 nM in each case. For the same molecule, the TGI in the assay on MALME-3M melanoma, with A549 NSCLC, with OVCAR-3 ovarian and in the assay with TK-10 renal was above 100000 nM each time.
